Earlier results, collected in patent US20100331927A1, “FEEDBACK-CONTROLLED METHOD FOR DELIVERING PHOTODYNAMIC THERAPY AND RELATED INSTRUMENTATION” (priority 2007, published 2010).

Test system: rat bladder tumor model
Details: 60s/60s light interval/dark interval

Question: For `C=Cc1c(C)c2cc3nc(cc4[nH]c(cc5nc(cc1[nH]2)C(C)=C5CCC(=O)O)c(CCC(=O)OC)c4C)C1(C)C3=CC=C(C(=O)OC)C1C(=O)OC` (stereo not shown) [BPD-MA], which “improvement of phototoxicity by light fractionation” value is on record?
Answer: 1000 fold
